We go through one compound from paper PMC6236115, “The 9H-Fluoren Vinyl Ether Derivative SAM461 Inhibits Bacterial Luciferase Activity and Protects Artemia franciscana From Luminescent Vibriosis” (Frontiers in Cellular and Infection Microbiology, 2018).

The target of this test is T1, Vibrio fischeri luciferase (VfLuc) (Aliivibrio fischeri, UniProt P19907).
T1 construct: gene luxA; commercial Vibrio fischeri luciferase (Sigma-Aldrich L8507), with FMN reductases; with luciferase beta subunit (LuxB)
T1 sequence (P19907 1-354): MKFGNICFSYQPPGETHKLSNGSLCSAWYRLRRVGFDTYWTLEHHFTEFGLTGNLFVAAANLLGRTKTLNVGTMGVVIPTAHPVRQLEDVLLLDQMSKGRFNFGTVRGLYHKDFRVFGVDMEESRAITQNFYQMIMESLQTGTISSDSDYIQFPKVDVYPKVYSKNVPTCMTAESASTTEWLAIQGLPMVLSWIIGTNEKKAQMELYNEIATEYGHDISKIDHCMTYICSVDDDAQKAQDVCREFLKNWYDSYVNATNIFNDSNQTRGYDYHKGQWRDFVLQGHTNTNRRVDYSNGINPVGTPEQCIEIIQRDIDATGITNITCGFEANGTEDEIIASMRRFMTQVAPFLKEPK
T1 sequence (P19908 1-326 partner): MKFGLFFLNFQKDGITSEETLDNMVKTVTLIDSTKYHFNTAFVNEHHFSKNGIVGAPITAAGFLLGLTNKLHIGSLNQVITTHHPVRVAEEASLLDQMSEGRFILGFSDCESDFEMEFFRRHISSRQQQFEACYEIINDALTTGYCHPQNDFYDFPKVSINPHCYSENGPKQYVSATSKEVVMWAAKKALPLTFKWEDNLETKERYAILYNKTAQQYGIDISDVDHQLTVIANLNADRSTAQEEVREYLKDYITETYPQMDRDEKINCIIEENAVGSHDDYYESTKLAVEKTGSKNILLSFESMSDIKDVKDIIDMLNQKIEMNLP
Nature of the test: luminescence enzyme assay, coupled with FMN reductase, 12-point titration. The test is classed as biochemical.

In general, IC50 refers to the concentration that inhibits the measured activity by half. The low end stands for greater potency, the high end for weaker potency. Compound `COC(=O)/C=C/OC1c2ccccc2-c2ccccc21` [SAM461, (E)-Methyl 3-((9H-fluoren-9-yl)oxy)acrylate] returned an IC50 of 191 µM.
